According to patent US11981658B2, “Substituted aminopyridine compounds as EGFR inhibitors” (YUHAN CORPORATION, priority 2021, dated 2024):
Read-outs that look alike come from different tables or passages of the source.

Key:
EGFR Del19/C797S = EGFR Del19/C797S (Homo sapiens, UniProt P00533, C797S/DEL746-750); test: Biochemical EGFR kinase inhibition assay (Lance Ultra TR-FRET), double mutant del19/C797S
Method in brief: (§1)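 Step 1: compound in kinase buffer, 0.003–10 μM. Step 2: kinase reaction 1 h at room temperature. Step 4: TR-FRET read at 615/665 nm; IC50 calculated.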

EGFR wildtype (WT) = EGFR wildtype (WT) (Homo sapiens, UniProt P00533); test: Biochemical EGFR kinase inhibition assay (Lance Ultra TR-FRET), wildtype
Chain of EGFR wildtype (WT) (P00533 25-1210): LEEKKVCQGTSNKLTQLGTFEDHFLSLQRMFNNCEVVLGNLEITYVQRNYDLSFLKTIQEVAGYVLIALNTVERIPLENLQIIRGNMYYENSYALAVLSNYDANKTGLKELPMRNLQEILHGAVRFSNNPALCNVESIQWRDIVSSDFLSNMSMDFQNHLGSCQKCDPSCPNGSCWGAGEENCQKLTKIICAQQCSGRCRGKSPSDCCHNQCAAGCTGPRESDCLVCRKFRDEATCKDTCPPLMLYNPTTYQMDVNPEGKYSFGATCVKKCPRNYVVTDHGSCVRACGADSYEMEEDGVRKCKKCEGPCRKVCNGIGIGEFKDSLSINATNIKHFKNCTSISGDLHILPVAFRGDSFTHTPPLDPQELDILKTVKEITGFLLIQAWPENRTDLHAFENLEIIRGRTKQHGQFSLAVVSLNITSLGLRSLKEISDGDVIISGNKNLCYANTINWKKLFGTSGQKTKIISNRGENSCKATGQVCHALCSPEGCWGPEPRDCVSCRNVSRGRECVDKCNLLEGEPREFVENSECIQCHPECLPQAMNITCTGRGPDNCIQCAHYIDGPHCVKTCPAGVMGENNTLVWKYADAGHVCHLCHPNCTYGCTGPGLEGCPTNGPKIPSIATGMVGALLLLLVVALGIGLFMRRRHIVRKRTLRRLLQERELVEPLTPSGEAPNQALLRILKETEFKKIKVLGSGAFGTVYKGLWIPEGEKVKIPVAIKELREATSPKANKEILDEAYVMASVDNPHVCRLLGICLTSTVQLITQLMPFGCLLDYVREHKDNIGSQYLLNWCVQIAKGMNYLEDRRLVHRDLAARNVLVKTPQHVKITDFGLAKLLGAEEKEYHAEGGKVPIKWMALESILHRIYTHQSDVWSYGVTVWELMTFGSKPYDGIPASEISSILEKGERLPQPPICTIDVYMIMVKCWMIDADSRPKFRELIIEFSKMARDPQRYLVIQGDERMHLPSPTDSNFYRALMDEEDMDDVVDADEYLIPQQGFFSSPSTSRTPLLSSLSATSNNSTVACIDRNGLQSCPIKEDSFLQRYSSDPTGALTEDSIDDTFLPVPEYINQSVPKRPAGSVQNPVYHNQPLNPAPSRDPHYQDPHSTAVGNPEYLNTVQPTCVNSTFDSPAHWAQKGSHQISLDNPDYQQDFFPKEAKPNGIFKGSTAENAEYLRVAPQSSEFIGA
Method in brief: as §1

EGFR L858R/T790M/C797S = EGFR L858R/T790M/C797S (Homo sapiens, UniProt P00533, C797S/L858R/T790M); test: Biochemical EGFR kinase inhibition assay (Lance Ultra TR-FRET), triple mutant L858R/T790M/C797S
Chain of EGFR L858R/T790M/C797S (P00533 25-1210 T790M/C797S/L858R): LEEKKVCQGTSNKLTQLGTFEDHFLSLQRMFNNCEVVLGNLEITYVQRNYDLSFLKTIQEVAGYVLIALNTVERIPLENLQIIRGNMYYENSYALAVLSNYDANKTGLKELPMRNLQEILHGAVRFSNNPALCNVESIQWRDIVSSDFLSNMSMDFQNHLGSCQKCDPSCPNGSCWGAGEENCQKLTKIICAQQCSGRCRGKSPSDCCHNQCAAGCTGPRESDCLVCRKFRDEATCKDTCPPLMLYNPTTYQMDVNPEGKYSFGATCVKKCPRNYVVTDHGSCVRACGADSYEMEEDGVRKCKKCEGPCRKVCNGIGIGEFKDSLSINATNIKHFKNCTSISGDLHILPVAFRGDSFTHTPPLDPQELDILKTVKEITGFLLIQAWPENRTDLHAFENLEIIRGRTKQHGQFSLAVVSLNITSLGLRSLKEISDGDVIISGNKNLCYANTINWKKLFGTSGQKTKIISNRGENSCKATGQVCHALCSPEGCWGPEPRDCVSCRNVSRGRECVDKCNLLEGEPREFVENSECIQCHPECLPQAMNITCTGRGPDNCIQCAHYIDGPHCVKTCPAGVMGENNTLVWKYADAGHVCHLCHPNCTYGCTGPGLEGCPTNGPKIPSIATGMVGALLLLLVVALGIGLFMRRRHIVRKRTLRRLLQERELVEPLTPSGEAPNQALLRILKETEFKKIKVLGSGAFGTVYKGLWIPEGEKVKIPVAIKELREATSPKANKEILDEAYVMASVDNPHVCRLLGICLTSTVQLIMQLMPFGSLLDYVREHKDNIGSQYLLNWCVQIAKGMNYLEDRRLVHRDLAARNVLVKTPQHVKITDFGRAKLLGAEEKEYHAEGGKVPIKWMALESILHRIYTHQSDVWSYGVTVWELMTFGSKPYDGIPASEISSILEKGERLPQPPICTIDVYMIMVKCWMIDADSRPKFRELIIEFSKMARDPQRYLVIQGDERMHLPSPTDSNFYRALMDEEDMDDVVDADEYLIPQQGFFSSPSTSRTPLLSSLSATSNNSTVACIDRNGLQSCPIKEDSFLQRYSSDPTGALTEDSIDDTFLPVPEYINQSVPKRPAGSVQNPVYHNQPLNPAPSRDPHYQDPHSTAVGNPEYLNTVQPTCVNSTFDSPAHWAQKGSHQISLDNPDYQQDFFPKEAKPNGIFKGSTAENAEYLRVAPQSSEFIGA
Method in brief: as §1

EGFR L858R/C797S = EGFR L858R/C797S (Homo sapiens, UniProt P00533, C797S/L858R); test: Biochemical EGFR kinase inhibition assay (Lance Ultra TR-FRET), double mutant L858R/C797S
Method in brief: as §1

EGFR Del19/T790M/C797S = EGFR Del19/T790M/C797S (Homo sapiens, UniProt P00533, C797S/DEL746-750/T790M); test: Biochemical EGFR kinase inhibition assay (Lance Ultra TR-FRET), triple mutant del19/T790M/C797S
Chain of EGFR Del19/T790M/C797S (P00533 with tags, fused parts or gaps DEL746-750/T790M/C797S): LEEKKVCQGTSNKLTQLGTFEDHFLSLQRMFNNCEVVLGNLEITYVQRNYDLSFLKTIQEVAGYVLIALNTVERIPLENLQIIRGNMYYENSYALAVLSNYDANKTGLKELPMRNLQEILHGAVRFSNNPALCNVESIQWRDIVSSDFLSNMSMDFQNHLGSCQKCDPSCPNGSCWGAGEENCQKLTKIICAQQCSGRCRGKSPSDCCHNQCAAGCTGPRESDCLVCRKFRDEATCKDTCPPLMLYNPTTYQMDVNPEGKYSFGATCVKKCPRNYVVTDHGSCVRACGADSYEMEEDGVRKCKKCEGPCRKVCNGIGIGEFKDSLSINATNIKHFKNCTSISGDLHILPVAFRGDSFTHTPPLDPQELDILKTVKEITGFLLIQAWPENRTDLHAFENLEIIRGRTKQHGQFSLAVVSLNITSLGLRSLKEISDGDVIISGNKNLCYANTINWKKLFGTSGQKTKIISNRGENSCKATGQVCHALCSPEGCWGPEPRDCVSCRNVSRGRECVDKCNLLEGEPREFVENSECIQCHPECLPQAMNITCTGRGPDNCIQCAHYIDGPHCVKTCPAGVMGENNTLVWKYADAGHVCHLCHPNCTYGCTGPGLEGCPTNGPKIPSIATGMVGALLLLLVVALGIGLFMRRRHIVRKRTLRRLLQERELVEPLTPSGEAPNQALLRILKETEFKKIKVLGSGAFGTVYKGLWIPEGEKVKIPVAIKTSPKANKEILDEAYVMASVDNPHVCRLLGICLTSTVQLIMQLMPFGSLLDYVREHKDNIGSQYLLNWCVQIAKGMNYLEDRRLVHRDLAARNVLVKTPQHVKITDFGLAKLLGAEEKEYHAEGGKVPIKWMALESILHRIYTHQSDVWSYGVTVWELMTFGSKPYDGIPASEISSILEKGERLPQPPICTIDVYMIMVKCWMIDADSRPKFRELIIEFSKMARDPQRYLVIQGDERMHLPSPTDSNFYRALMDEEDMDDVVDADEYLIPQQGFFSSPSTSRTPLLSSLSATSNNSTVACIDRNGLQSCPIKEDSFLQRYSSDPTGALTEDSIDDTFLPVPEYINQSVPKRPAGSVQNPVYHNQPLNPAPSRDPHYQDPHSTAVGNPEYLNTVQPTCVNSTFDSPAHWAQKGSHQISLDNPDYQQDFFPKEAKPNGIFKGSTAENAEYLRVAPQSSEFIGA
Method in brief: as §1

[1] = IC50 Del19/C797S (nM), 100 μM ATP
[2] = Km ATP, read-out: IC50 Del19/C797S (nM), Km ATP
[3] = IC50 L858R/T790M/C797S (nM), 100 μM ATP
[4] = Km ATP, read-out: IC50 L858R/T790M/C797S (nM), Km ATP
[5] = IC50 L858R/C797S (nM), 100 μM ATP
[6] = IC50 Del19/T790M/C797S (nM), 100 μM ATP
[7] = Km ATP, read-out: IC50 Del19/T790M/C797S (nM), Km ATP
[8] = ATP at Km, read-out: IC50 Del19/C797S (nM), Km ATP
[9] = ATP at Km, read-out: IC50 WT (nM), Km ATP
[10] = ATP at Km, read-out: IC50 L858R/C797S (nM), Km ATP
[11] = ATP at Km, read-out: IC50 L858R/T790M/C797S (nM), Km ATP
[12] = ATP at Km, read-out: IC50 Del19/T790M/C797S (nM), Km ATP
[13] = Km ATP, read-out: IC50 WT (nM), Km ATP
[14] = Km ATP, read-out: IC50 L858R/C797S (nM), Km ATP

Chain of EGFR Del19/C797S (P00533 with tags, fused parts or gaps DEL746-750/C797S): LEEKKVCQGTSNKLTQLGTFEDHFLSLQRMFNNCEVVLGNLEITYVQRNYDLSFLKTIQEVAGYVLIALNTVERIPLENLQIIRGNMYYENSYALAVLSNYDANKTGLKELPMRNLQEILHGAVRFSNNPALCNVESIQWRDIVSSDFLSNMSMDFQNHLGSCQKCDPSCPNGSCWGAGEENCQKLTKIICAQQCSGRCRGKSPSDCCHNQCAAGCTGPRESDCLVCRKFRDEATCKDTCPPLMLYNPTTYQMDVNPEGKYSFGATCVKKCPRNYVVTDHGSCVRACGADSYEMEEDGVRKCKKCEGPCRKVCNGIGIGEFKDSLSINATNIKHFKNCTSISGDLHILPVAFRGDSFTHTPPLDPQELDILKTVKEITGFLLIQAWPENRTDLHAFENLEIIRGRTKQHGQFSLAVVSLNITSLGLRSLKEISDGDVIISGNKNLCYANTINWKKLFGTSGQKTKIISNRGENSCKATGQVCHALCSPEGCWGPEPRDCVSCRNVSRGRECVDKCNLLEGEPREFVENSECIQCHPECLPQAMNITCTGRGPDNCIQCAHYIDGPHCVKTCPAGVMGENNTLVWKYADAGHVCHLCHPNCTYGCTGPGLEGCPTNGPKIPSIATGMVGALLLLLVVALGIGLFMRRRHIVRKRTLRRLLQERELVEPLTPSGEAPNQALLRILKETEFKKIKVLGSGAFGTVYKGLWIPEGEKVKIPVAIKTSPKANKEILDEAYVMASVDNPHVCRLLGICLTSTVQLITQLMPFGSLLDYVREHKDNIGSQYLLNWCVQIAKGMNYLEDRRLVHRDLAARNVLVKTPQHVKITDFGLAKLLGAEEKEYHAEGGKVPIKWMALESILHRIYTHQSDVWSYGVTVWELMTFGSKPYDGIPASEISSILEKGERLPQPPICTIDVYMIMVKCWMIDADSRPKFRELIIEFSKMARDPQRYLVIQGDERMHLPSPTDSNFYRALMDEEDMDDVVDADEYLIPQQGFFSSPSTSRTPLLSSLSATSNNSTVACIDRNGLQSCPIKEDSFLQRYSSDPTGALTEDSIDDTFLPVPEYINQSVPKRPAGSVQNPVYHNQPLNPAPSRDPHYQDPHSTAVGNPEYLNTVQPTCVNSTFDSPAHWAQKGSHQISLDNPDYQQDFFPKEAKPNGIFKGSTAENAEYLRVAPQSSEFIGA

| Compound | IC50 (EGFR Del19/C797S; [1]) | IC50 (EGFR Del19/C797S; [2]) | IC50 (EGFR wildtype (WT); IC50 WT (nM), 100 μM ATP) | IC50 (EGFR L858R/T790M/C797S; [3]) | IC50 (EGFR L858R/T790M/C797S; [4]) | IC50 (EGFR L858R/C797S; [5]) | IC50 (EGFR Del19/T790M/C797S; [6]) | IC50 (EGFR Del19/T790M/C797S; [7]) | IC50 (EGFR Del19/C797S; [8]) | IC50 (EGFR wildtype (WT); [9]) | IC50 (EGFR L858R/C797S; [10]) | IC50 (EGFR L858R/T790M/C797S; [11]) | IC50 (EGFR Del19/T790M/C797S; [12]) | IC50 (EGFR Del19/C797S; Km ATP, read-out: IC50 Del19/C797S (nM) Km ATP) | IC50 (EGFR wildtype (WT); Km ATP, read-out: IC50 WT (nM) Km ATP) | IC50 (EGFR L858R/T790M/C797S; Km ATP, read-out: IC50 L858R/T790M/C797S (nM) Km ATP) | IC50 (EGFR L858R/C797S; Km ATP, read-out: IC50 L858R/C797S (nM) Km ATP) | IC50 (EGFR Del19/T790M/C797S; Km ATP, read-out: IC50 Del19/T790M/C797S (nM) Km ATP) | IC50 (EGFR wildtype (WT); [13]) | IC50 (EGFR L858R/C797S; [14]) |
| --- | --- | --- | --- | --- | --- | --- | --- | --- | --- | --- | --- | --- | --- | --- | --- | --- | --- | --- | --- | --- |
| CC(C)(O)[C@H]1CC[C@@H](Nc2cc(Nc3ccnc(-c4cnn(S(=O)(=O)C5CC5)c4)n3)ncc2C#Cc2cnn(C(F)(F)F)c2)CC1 [Example 337, 2-((1s,4s)-4-((2-((2-(1-(Cyclopropylsulfonyl)-1H-pyrazol-4-yl)pyrimidin-4-yl)amino)-5-((1-(trifluoromethyl)-1H-pyrazol-4-yl)ethynyl)pyridin-4-yl)amino)cyclohexyl)propan-2-ol] | 325 nM | 197 nM | > 10000 nM | 10.9 nM | 3.3 nM | > 10000 nM | 8 nM | 6 nM |  |  |  |  |  |  |  |  |  |  |  |  |
| COC1CCN(c2cc(Nc3ccnc(-c4cnn(S(=O)(=O)C5CC5)c4)n3)ncc2C#Cc2cnn(C)c2)CC1 [Example 15, 2-(1-(Cyclopropylsulfonyl)-1H-pyrazol-4-yl)-N-(4-(4-methoxypiperidin-1-yl)-5-((1-methyl-1H-pyrazol-4-yl)ethynyl)pyridin-2-yl)pyrimidin-4-amine] | 6.4 nM |  | 661 nM | 1.6 nM |  | 25.5 nM | 2.6 nM |  |  |  |  |  |  |  |  |  |  |  |  |  |
| CN(C)C[C@H]1CC[C@@H](Nc2cc(Nc3ccnc(-c4cnn(S(=O)(=O)C5CC5)c4)n3)ncc2C#Cc2cnn(C(F)F)c2)CC1 [Example 310, N^2-(2-(1-(Cyclopropylsulfonyl)-1H-pyrazol-4-yl)pyrimidin-4-yl)-5-((1-(difluoromethyl)-1H-pyrazol-4-yl)ethynyl)-N^4-((1s,4s)-4-((dimethylamino)methyl)cyclohexyl)pyridine-2,4-diamine] | 4.2 nM |  | 8840 nM | 1.3 nM |  | 56.3 nM | 0.8 nM |  | 2.9 nM | 44 nM | 1.9 nM |  |  |  |  |  |  |  |  |  |
| Cn1cc(C#Cc2cnc(Nc3ccnc(Nc4ccccc4S(C)(=O)=O)n3)cc2N2CCC(C)(CO)CC2)cn1 [Example 270, (4-Methyl-1-(5-((1-methyl-1H-pyrazol-4-yl)ethynyl)-2-((2-((2-(methylsulfonyl)phenyl)amino)pyrimidin-4-yl)amino)pyridin-4-yl)piperidin-4-yl)methanol] | 28 nM |  | > 10000 nM | 4.8 nM |  | 2800 nM | 1.2 nM |  | 27.9 nM | 111 nM | 72.8 nM | 1.6 nM | 0.7 nM |  |  |  |  |  |  |  |
| Cc1cnc(C#Cc2cnc(Nc3ccnc(-c4cnn(S(=O)(=O)C5CC5)c4)n3)cc2N[C@@H]2CCC[C@H](O)C2)cn1 [Example 170, (1 S,3R)-3-((2-((2-(1-(Cyclopropylsulfonyl)-1H-pyrazol-4-yl)pyrimidin-4-yl)amino)-5-((5-methylpyrazin-2-yl)ethynyl)pyridin-4-yl)amino)cyclohexan-1-ol] | 19.9 nM |  | > 10000 nM | 5.7 nM |  | 316 nM | 1 nM |  | 4.4 nM | 286 nM | 23.8 nM | 0.6 nM | 0.9 nM |  |  |  |  |  |  |  |
| CN(C)CC1(C)CCN(c2cc(Nc3ccnc(-c4cnn(S(=O)(=O)C5CC5)c4)n3)ncc2C#Cc2cnn(C)c2)CC1 [Example 296, 2-(1-(Cyclopropylsulfonyl)-1H-pyrazol-4-yl)-N-(4-(4-((dimethylamino)methyl)-4-methylpiperidin-1-yl)-5-((1-methyl-1H-pyrazol-4-yl)ethynyl)pyridin-2-yl)pyrimidin-4-amine] | 0.6 nM |  | 3250 nM | 0.3 nM |  | 9 nM | 0.1 nM |  | 0.6 nM | 4.4 nM | 1.4 nM | 0.1 nM | 0.1 nM |  |  |  |  |  |  |  |
| Cn1cc(C#Cc2cnc(Nc3ccnc(-c4cnn(S(=O)(=O)C5CC5)c4)n3)cc2N[C@H]2CCC[C@H](O)C2)cn1 [Example 43, (1 S,3S)-3-((2-((2-(1-(Cyclopropylsulfonyl)-1H-pyrazol-4-yl)pyrimidin-4-yl)amino)-5-((1-methyl-1H-pyrazol-4-yl)ethynyl)pyridin-4-yl)amino)cyclohexan-1-ol] | 1.7 nM |  | > 10000 nM | 0.7 nM |  | 8.9 nM | 0.6 nM |  |  |  |  |  |  | 1.4 nM | 20.3 nM | 0.2 nM | 1.1 nM | 0.5 nM |  |  |
| CC1(CO)CCN(c2cc(Nc3ccnc(-c4cnn(S(=O)(=O)C5CC5)c4)n3)ncc2C#C[Si](C)(C)C)CC1 [Example 246, (1-(2-((2-(1-(Cyclopropylsulfonyl)-1H-pyrazol-4-yl)pyrimidin-4-yl)amino)-5-((trimethylsilyl)ethynyl)pyridin-4-yl)-4-methylpiperidin-4-yl)methanol] | 54.6 nM |  | > 10000 nM | 15.4 nM |  | 957 nM | 6.4 nM |  | 34 nM | 258 nM | 105 nM | 3.8 nM | 7.4 nM |  |  |  |  |  |  |  |
| CS(=O)(=O)N1CCC(C#Cc2cnc(Nc3ccnc(-c4cnn(S(=O)(=O)C5CC5)c4)n3)cc2NC2CCC(CO)CC2)C1 (stereo not drawn) [Example 397, ((1s,4s)-4-((2-((2-(1-(Cyclopropylsulfonyl)-1H-pyrazol-4-yl)pyrimidin-4-yl)amino)-5-((1-(methylsulfonyl)pyrrolidin-3-yl)ethynyl)pyridin-4-yl)amino)cyclohexyl)methanol] | 1.5 nM | 0.7 nM | > 10000 nM | 1.3 nM | 0.5 nM | 31.3 nM | 0.9 nM | 1.5 nM |  |  |  |  |  |  |  |  |  |  | 16.9 nM | 1.5 nM |
| CN1CCC(C#Cc2cnc(Nc3ccnc(-c4cnn(S(=O)(=O)C5CC5)c4)n3)cc2N2CCC3(CCCO3)CC2)C1 (stereo not drawn) [Example 372, 2-(1-(Cyclopropylsulfonyl)-1H-pyrazol-4-yl)-N-(5-((1-methylpyrrolidin-3-yl)ethynyl)-4-(1-oxa-8-azaspiro[4.5]decan-8-yl)pyridin-2-yl)pyrimidin-4-amine] | 1.6 nM | 0.8 nM | 5110 nM | 0.3 nM | 0.1 nM | 22.9 nM | 0.3 nM | 0.2 nM |  |  |  |  |  |  |  |  |  |  | 5.5 nM | 1 nM |
| O=C(N1CCC(C#Cc2cnc(Nc3ccnc(-c4cnn(S(=O)(=O)C5CC5)c4)n3)cc2NCC2CCC(CO)CC2)C1)C(F)(F)F (stereo not drawn) [Example 411, 1-(3-((6-((2-(1-(Cyclopropylsulfonyl)-1H-pyrazol-4-yl)pyrimidin-4-yl)amino)-4-((((1 r,4r)-4-(hydroxymethyl)cyclohexyl)methyl)amino)pyridin-3-yl)ethynyl)pyrrolidin-1-yl)-2,2,2-trifluoroethan-1-one] | 59.8 nM |  | > 10000 nM | 35.9 nM |  | 979 nM | 7.3 nM |  |  |  |  |  |  |  |  |  |  |  |  |  |
